{
  "source": "paper PMC6643437",
  "about": "“MicroRNA Biogenesis is Enhanced by Liposome-Encapsulated Pin1 Inhibitor in Hepatocellular Carcinoma” (Theranostics, 2019)",
  "key": {"XPO5": {"test_system": "XPO5", "test": "XPO5 subcellular distribution (confocal imaging, fractionation and Western blotting)", "assay_type": "cell-based, human", "conditions": "1 μM, SK-Hep1", "procedure": "SK-Hep1 cells cultured on glass coverslips after different treatments were fixed in 4% PFA for 20 min, permeabilized with 0.5% Triton X-100 for 10 min, blocked with 5% BSA, and then incubated with primary anti-XPO5 antibody at 4 °C overnight, followed by incubation with Alexa Fluor dye- conjugated secondary antibodies for 1 h. Then the nuclei were stained with DAPI for 5 min at room temperature before mounting in Immu-Mout (Thermo fisher). Confocal fluorescence images were captured using Leica TCS SP5 II confocal spectral microscope.\nFor total protein preparation, cells were lysed on ice for 20 min in the RIPA lysis buffer (Beyotime) with protease inhibitor cocktail (Bimake), followed by centrifugation at 12000 rpm for 10 min at 4 °C. The resultant proteins in the supernatants were stored at -80 °C or directly subjected to SDS-PAGE. For nuclear-cytoplasmic fractionation of proteins, RLN buffer (5 mM Tris-HCl pH 7.4, 1.5 mM MgCl2, 140 mM NaCl, 0.5% NP-40) was freshly prepared when used. SK-Hep1 cells were harvested and gently resuspended in 200 µL RLN buffer with protease inhibitor cocktail, followed by centrifugation at 300 g for 2 minutes at 4 °C, the resultant supernatants are the cytoplasmic proteins. […] The signals were detected using ECL reagents (Life Technologies)."}, "SK-Hep1 tumors [1]": {"test_system": "SK-Hep1 tumors", "design": "method as in PMID 29381806", "conditions": "free API-1, mice, ref [15]; cited from earlier work"}, "[2]": {"test": "In vitro drug release by dialysis at pH 7.4", "assay_type": "physicochemical", "conditions": "PBS pH 7.4 with 0.5% Tween-80, 37 °C", "procedure": "In vitro release of API-1 from API-LP was investigated in a simulated blood pH environment (pH 7.4). Briefly, 1 mL API-LP diluted ten times in advance was used to determine the initial API-1 concentration, and the remaining 9 mL was dialyzed in a dialysis bag (3500 Da) in 50 mL PBS (pH 7.4) containing 0.5% Tween-80. The experiment was performed in triplicate at 37°C with shaking at 100 rpm for one week. Samples were withdrawn at prescheduled sampling time points and replaced with the same volume of release buffer each time. The samples were quantified by high performance liquid chromatography (HPLC)."}, "[3]": {"test": "Blood biochemistry and hepatic histopathology in tumor-bearing mice after multiple dosing", "assay_type": "in vivo", "conditions": "4 mg/kg i.v. once every two days", "procedure": "(§1) Safety of the liposomes in vivo was evaluated by blood biochemical analysis, H&E staining and Masson staining of tissues. Briefly, following i.v. administration of normal saline, LP, API-1 or API-LP in the BALB/c nude mice, the peripheral blood samples were collected using heparin and centrifuged for serum biochemical analysis. The tissue samples were simultaneously excised and fixed in 4% PFA. Blood ALT, AST, TBIL, ALB, UREA and total protein analyses were performed using BioAssay Systems blood chemistry assay kits following the manufacturer's instructions. The tissue samples were embedded in paraffin, then cut into 5 μm thick paraffin sections and subsequently placed on glass slide. The slides were stained with H&E. The histopathological alterations were observed and imaged with a light microscope (OLYMPUS BX43).\nIn order to facilitate the judgment of the positivity and degree of hepatic injury of mice, an ace hepatic injury mice model was built by treating mice with tetracycline by gavage at dose of 500 mg/kg. Mice were fasted after oral tetracycline for 30 h and then were executed. The serum ALT, AST, TBIL and hepatic histopathological examinations were performed to evaluate liver injuries.\nThe experimental tissues were fixed with formalin and embedded in paraffin. Sections with 5 μm in thickness were prepared for H&E staining, Masson staining and immunostaining with anti-RIP3 antibody (Abcam). The images were acquired on an Olympus digital camera attached to a light microscope."}, "[4]": {"test": "Pharmacokinetic study in BALB/c mice", "assay_type": "in vivo", "conditions": "10 mg/kg i.v.", "procedure": "The pharmacokinetic performance of API-LP was assessed in BALB/c mice. Following overnight fasting, six mice were randomized into two groups and received i.v. injection of free API-1 in 1 × PBS (pH 7.4) with 5% DMSO and API-LP in 1 × PBS (pH 7.4), respectively, at 10 mg/kg dose. At the prescheduled sampling time points, 20 μL blood samples were collected through caudal vein bleeding into heparinized centrifuge tube, followed by the centrifugation to obtain plasma, which was then stored at -80 °C until determination of the drug concentration.\nFor API-1 quantitation, plasma samples were thawed to room temperature. API-1 was extracted using acetonitrile and quantified by HPLC with QTRAP 5500 tandem mass spectrometry (LC/MS/ MS) system. The pharmacokinetic parameters based on the measured concentrations were calculated using GraphPad Prism (GraphPad Software)."}, "SK-Hep1 tumors [5]": {"test_system": "SK-Hep1 tumors", "test": "SK-Hep1 xenograft in BALB/c nude mice", "assay_type": "in vivo", "procedure": "SK-Hep1 cells during the exponential-growth phase were collected and suspended in saline solution containing 50% Matrigel (Corning) at 5 × 10^7/mL. Then 100 μL of cells were injected into female BALB/c nude mice (5 weeks old) subcutaneously. Tumor growth was recorded every 3 days, and the tumor volume was calculated as ab^2/2 (a, long diameter; b, short diameter). All mice were randomized into 4 groups (8 mice per group) when the tumor volume reached 150-200 mm^3 and then were intravenously injected with normal saline, LP, free API-1 or API-LP at the 4 mg/kg dosage once every two days. At the end of the treatment, tumors were removed from mice and RNAs were extracted for miRNA detection.\nQuantitative RT-PCR was used to assess miRNA expression levels. Total RNAs were extracted by TRIzol reagent (Invitrogen) from cells and transcribed by M-MLV reverse transcriptase (Invitrogen). Hairpin-it^TM real-time PCR miRNA kit for miR-122, let-7a, miR-29b and miR-146a were purchased from Shanghai GenePharma Co., Ltd (China). The miRNA levels were determined by Applied Biosystems StepOne Plus Real-Time PCR Systems using SYBR green master mix (Thermo fisher). Small endogenous nucleolar U6 RNA was used as internal control for miRNA normalization."}, "[6]": {"test": "In vivo safety study, single 100 mg/kg i.v. dose in BALB/c nude mice", "procedure": "as §1"}, "SK-Hep1 cells": {"test_system": "SK-Hep1 cells", "test": "MTT cell viability assay", "assay_type": "cell-based, human", "conditions": "72 h", "procedure": "MTT assay was conducted to estimate cell viability. Briefly, SK-Hep1 cells were seeded in a 96-well culture plate (2000 cells/well) and then treated with different concentrations of API-LP or free API-1 at 72 h in a 5% CO2 incubator for indicated time. At the end of incubation, 10 µL of MTT solution (5 mg/mL) was added into each well. After a 3 h incubation, DMSO (100 μL) was added to dissolve the resultant purple formazan crystals. The absorbance was measured at 570 nm on Thermo Scientific Varioskan Flash Multimode Reader."}, "[7]": {"conditions": "4 mg/kg i.v. once every two days, SK-Hep1 xenograft"}},
  "data": [
    {"substance": "API-1", "values": [
      {"measurement": "nucleus-to-cytoplasm export of XPO5", "setting": "XPO5", "result": "restored the export of XPO5 to cytoplasm"},
      {"measurement": "efficacious dose to suppress HCC tumor growth in mice", "setting": "SK-Hep1 tumors [1]", "result": 5, "unit": "mg/kg"},
      {"measurement": "release in the first 12 h of dialysis", "setting": "[2]", "result": 81.6, "unit": "%"},
      {"measurement": "ALT Mean", "setting": "[3]", "result": 39.67, "unit": "U/L"},
      {"measurement": "AST Mean", "setting": "[3]", "result": 133.67, "unit": "U/L"},
      {"measurement": "TBIL Mean", "setting": "[3]", "result": 1.70, "unit": "µmol/L"},
      {"measurement": "API-1 plasma concentration at 24 h postdose", "setting": "[4]", "result": 34.8, "unit": "ng/mL"},
      {"measurement": "Clearance", "setting": "[4]; n=3", "result": "72.75 ± 3.93", "unit": "mL/h"},
      {"measurement": "Half-life t1/2", "setting": "[4]; n=3", "result": "6.31 ± 0.66", "unit": "h"},
      {"measurement": "body weight", "setting": "SK-Hep1 tumors [5]; [7]", "result": "did not impact body weight"},
      {"measurement": "tumor growth and tumor volume", "setting": "SK-Hep1 tumors [5]; [7]", "result": "significantly suppressed tumor growth and reduced tumor volume"},
      {"measurement": "biogenesis of mature miRNAs in tumor tissues", "setting": "SK-Hep1 tumors [5]; 4 mg/kg, SK-Hep1 tumor tissues, real-time PCR", "result": "significantly increased biogenesis of miR-122, let-7a, miR-29b and miR-146a"},
      {"measurement": "haematological or liver toxicity (blood biochemistry)", "setting": "[6]", "result": "neither free API-1 nor API-LP had haematological or liver toxicity"},
      {"measurement": "inhibition of SK-Hep1 cell proliferation (MTT)", "setting": "SK-Hep1 cells", "result": "inhibited SK-Hep1 cell proliferation in a dose-dependent manner"}
    ]}
  ]
}
